Columns and labels:
[1] = tested on: purified peritoneal mast cells (Mc-cpa); assay type: in vitro ADME, mouse; details: Mc-cpaY356L,E378A mast cells, 2 μM ionomycin, 37°C, 60 min; reduced (DTT/IAA) sample; MALDI-TOF
[2] = mouse, 37°C, up to 60 min

| Substance | internal cleavage of S6b [1] | not cleaved [2] |
| --- | --- | --- |
| sarafotoxin 6b [S6b] | reaction products consistent with the masses of 1–13 and 1–14 fragments of S6b |  |
| Cys-Ser-Cys-Ser-Ser-Leu-Met-Asp-Lys-Glu-Cys-Val-Tyr-Phe-Cys-His-Leu-Asp-Ile-Ile-Trp |  | ET-1 (1–21) was also maintained |

Reference: PMC2118486 (The Journal of Experimental Medicine, 2007)
